US5457106A, “Pyridine derivatives, their production and use” (Takeda Chemical Industries, Ltd., priority 1991, dated 1995)
Structures can show the parent of a compound that is named as a salt. Where two headings read alike, the source gives them in different places.

How the values were obtained:
[1] = system: Mouse phenylquinone writhing; assay: Mouse phenylquinone writhing inhibitory activity; type: in vivo, mouse (Slc: ICR); details: Mus musculus, po, 20 min, orally, read-out: Inhibitory percentage (phenylquinone writhing)
In short: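 Male ICR mice (4 weeks, 17–24 g) dosed orally with compound suspended in 5% gum arabic. After 30 min, 0.02% phenylquinone (0.1 ml/10 g) given i.p.; writhing and stretching responses counted over 20 min.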

[2] = target: T1, cyclooxygenase (Rattus norvegicus, UniProt Q63921); assay: Cyclooxygenase inhibitory activity (HHT formation from arachidonic acid in rat platelet-rich plasma); type: cell-based, rat (Jcl:wistar)
T1 construct: from tissue; host or cells: platelets in platelet-rich plasma from rat abdominal aorta blood (Jcl:wistar, male)
T1 sequence (Q63921 27-602): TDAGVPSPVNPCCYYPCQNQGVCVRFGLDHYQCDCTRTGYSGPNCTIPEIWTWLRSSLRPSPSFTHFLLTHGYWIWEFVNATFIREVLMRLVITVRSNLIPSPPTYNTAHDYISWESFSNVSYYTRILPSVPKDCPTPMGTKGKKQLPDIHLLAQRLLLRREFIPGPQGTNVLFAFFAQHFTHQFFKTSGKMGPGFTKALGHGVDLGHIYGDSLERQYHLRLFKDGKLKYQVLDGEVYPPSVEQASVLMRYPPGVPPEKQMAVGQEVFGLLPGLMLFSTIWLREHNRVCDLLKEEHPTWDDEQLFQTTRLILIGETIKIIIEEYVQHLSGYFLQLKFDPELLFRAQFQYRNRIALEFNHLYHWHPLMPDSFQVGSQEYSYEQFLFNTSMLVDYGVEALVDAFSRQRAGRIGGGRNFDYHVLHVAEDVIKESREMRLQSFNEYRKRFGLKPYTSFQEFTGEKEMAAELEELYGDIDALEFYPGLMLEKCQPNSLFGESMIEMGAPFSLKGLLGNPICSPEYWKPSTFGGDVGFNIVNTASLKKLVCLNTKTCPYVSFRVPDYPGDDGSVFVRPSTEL

[3] = target: T2, 5-Lipoxygenase (Rattus norvegicus, UniProt P12527); assay: 5-Lipoxygenase inhibitory activity in rat basophilic leukemia cells; type: cell-based
T2 construct: rat basophilic leukemia cell suspension; endogenous in cells
T2 sequence (P12527 1-673): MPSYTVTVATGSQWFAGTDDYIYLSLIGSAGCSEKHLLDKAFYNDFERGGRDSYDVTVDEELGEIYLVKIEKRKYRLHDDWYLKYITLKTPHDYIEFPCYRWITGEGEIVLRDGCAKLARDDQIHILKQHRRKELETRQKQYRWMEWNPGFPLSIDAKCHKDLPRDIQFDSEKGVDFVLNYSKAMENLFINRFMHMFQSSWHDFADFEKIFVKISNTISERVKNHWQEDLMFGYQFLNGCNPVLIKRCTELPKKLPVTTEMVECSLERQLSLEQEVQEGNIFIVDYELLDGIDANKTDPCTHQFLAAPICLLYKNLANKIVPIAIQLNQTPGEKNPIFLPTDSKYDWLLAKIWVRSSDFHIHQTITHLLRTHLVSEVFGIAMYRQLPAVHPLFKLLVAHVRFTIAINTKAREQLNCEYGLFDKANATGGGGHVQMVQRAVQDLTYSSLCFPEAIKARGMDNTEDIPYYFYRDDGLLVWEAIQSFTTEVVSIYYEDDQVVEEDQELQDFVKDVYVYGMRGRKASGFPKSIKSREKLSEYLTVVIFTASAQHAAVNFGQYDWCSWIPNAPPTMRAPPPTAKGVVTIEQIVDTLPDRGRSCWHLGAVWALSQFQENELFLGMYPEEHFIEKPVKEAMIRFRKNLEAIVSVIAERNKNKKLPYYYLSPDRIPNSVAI
Procedure: 5-Lipoxygenase Inhibitory Activity […] Then, 0.1 ml of mast cell medium containing 50 μg of arachidonic acid and 1 μg of calcium ionophore (A-23187) were added and the mixture was allowed to stand at 37° C. for 15 minutes. Ethanol (1 ml) was added thereto and the mixture was shaken well, and filtered (Membrane filter, 0.45 μm). […] As a control, the measurement was carried out according to the same manner except that 0.01 ml of the solvent used for dissolving the test compound was used in place of the test compound. The inhibitory percentage (%) was calculated from the following equation to obtain IC50.

[4] = system: ART (antigen-responding T-cell); assay: In vitro ART (antigen-responding T-cell) proliferation test; type: cell-based, Lewis rat; details: Rattus norvegicus, T-cell, read-out: % Inhibition of ART growth
[5] = system: Rat carrageenin pedal edema; assay: Rat carrageenin pedal edema inhibitory activity; type: in vivo, rat (Jcl: SD); details: Rattus norvegicus, po, 3 h, 50 mg/kg, orally, 3 hours after carrageenin; read-out: Inhibitory percentage (carrageenin pedal edema)
Procedure: Rat Carrageenin Pedal Edema Inhibitory Activity A Jcl: SD male rat (6 weeks old, weight 160-220 g) was used. After the mesurement of the volume of the dexter hind limb foot pad, a test compound suspended in 5% gum arabic solution was administered orally. Immediately after the administration, water was further administered orally so that the total administration volume of liquid became 5 ml/rat. After one hour, 0.05 ml of 1% carrageenin suspension in physiological saline was injected subcutaneously in the foot pad to induce edema [Winter, […]. and Nuss, G. W.: Proc. Soc. exp. […] Three hours after injection of carrageenin, the volume of the dexter limb was measured, and the edema volume was calculated by the difference between the volume after injection and the volume prior to injection.

[6] = system: ICAM-1; assay: Adhesion protein expression inhibitory activity, ICAM-1; type: cell-based; details: human umbilical vascular endothelial cells, TNF-α, 360 min
Procedure: Adhesion Protein Expression Inhibitory Activity The various concentrations of test compounds were added to the human umbilical cord-derived vascular endothelial cells [sold by Klabo] which were seeded in the gelatin coat plate and the mixture was incubated at 37° C. for 15 minutes. Then, the human tumor necrosis factor-α[TNF-α; sold by Genzyme] was added therein to the final concentration of 1 ng/ml and incubation was carried out at 37° C. for 3 hours for expression of ELAM-1 and for 6 hours for that of ICAM-I. After the reaction, the cells were fixed using glutaraldhyde and the expression amount of ELAM-1 and ICAM-1 was measured by the cell-ELISA method. That is, the expression was determined by […] the adhesion proteins on the cells in the system using anti-ELAM-1 antibody BBA-2 and anti-ICAM-1 antibody BBA4 as the first antibody as well as horseradish peroxidase-labeled rabbit anti-mouse IgG antibody as the second antibody.

[7] = system: Mouse acetic acid writhing; assay: Mouse acetic acid writhing inhibitory activity; type: in vivo, mouse (Slc: ICR); details: orally; for inhibition in vivo at 50 mg/kg: Mus musculus, po, 20 min, read-out: Inhibitory percentage (acetic acid writhing); for Inhibitory percentage (acetic acid writhing): 50 mg/kg, hydrochloride
Procedure: Mouse Acetic Acid Writhing Inhibitory Activity
Ten male Slc: ICR mice, 4 weeks old, per 1 group were used. A test compound was administered orally, and after 30 minutes, 0.1 ml/10 g body weight of physiological saline containing 0.6% acetic acid was injected intraperitoneally. For 20 minutes, writhing (in agony condition) response by administration of acetic acid was counted regarding individual animals. The inhibitory percentage relative to the mean response counts of a control group was calculated regarding respective animals in a test compound administration group. The test compound was suspended in 5% gum arabic solution, and the administration volume was 0.2 ml/10 g.

[8] = 5-HETE, read-out: 5-Lipoxygenase inhibitory activity, 5-HETE IC50
[9] = LTB4, read-out: 5-Lipoxygenase inhibitory activity, LTB4 IC50

CCCCCCCCCC(=O)NCCCSc1ccncc1 [Example 1]
inhibition in vivo at 100 mg/kg ([1]; 100 mg/kg): 61%
IC50 [2]: 1.6 µM
IC50 [3, 8]: 16.8 µM
IC50 [3, 9]: 16.1 µM

CCCCCCCCCC(=O)NCCCSc1ccccn1 [Example 3, 2-[3-(caprylamino)propylthio]pyridine]
IC50 [3, 8]: 22.2 µM
IC50 [3, 9]: 17.5 µM

O=C1c2ccccc2C(=O)N1CCSc1ccccn1 [Example 4, 2-(2-phthalimidoethylthio)pyridine]
IC50 [3, 8]: 17.4 µM
IC50 [3, 9]: 11.8 µM

CCCCCCCCCCCC(=O)NCCCSc1ccncc1 [Example 17, 4-[3-(lauroylamino)propylthio]pyridine]
IC50 [2]: 1.5 µM
IC50 [3, 8]: 17.5 µM
IC50 [3, 9]: 14.3 µM

CCCCCCCC/C=C\CCCCCCCC(=O)NCCCSc1ccncc1 [Example 21, 4-[3-(oleoylamino)propylthio]pyridine]
IC50 [3, 8]: 21.5 µM
IC50 [3, 9]: 16.4 µM

O=C(c1ccccc1)N(CCCSc1ccncc1)Cc1ccccc1 [Example 77, 4-[3-(N-benzyl-N-benzoylamino)propylthio]pyridine hydrochloride]
inhibition in vivo at 50 mg/kg [1]: 62%
IC50 [3, 8]: 3.5 µM
IC50 [3, 9]: 3.2 µM
inhibition at 1 µM [4]: 28%
inhibition at 10 µM [4]: 85%

CCCCCCCCCCCCN(CCCSc1ccncc1)C(=O)C(F)(F)F [Example 94, 4-[3-(N-dodecyl-N-trifluoroacetylamino)propylthio]pyridine]
IC50 [3, 8]: 2.4 µM
IC50 [3, 9]: 2 µM
inhibition at 1 µM [4]: 33%
inhibition at 10 µM [4]: 70%

O=C1c2ccc([N+](=O)[O-])cc2C(=O)N1CSc1ccncc1 [Example 95, 4-[(4-nitrophthalimido)methylthio]pyridine]
IC50 [3, 8]: 0.044 µM
IC50 [3, 9]: 0.033 µM
inhibition at 1 µM [4]: 20%
inhibition at 10 µM [4]: 32%

O=C1c2ccccc2CN1CCCCSc1ccncc1 [Example 109, 4-[4-(isoindolin-1-on-2-yl)butylthio]pyridine]
inhibition in vivo at 50 mg/kg [1]: 89%
inhibition in vivo at 50 mg/kg [5]: 25%
IC50 [2]: 6.2 µM
IC50 [3, 8]: 1.4 µM
IC50 [3, 9]: 1.2 µM
inhibition at 1 µM [4]: -11%
inhibition at 10 µM [4]: -33%

O=C(NCCSc1ccncc1)c1cc2ccccc2s1 [Example 123, 4-[2-(thianaphthene-2-carbonylamino)ethylthio]pyridine]
IC50 [2]: 3.3 µM
Expression Inhibitory Potency, ICAM-1 ([6]; 30 μM): 34%
inhibition at 1 µM [4]: 15%
inhibition at 10 µM [4]: 66%

O=C(NCCCCSc1ccncc1)c1cc2ccccc2s1 [Example 128, 4-[4-(thianaphthene-2-carbonylamino)butylthio]pyridine]
IC50 [3, 8]: 6.1 µM
IC50 [3, 9]: 5.4 µM

O=C(c1cc2ccccc2s1)N1CCC(Sc2ccncc2)CC1 [Example 133, 4-[4-(thianaphthene-2-carbonyl)piperidylthio]pyridine]
inhibition in vivo at 50 mg/kg [5]: 27%
IC50 [3, 8]: 4.6 µM
IC50 [3, 9]: 4.3 µM

O=c1c2ccccc2n(Cc2ccccc2)c(=O)n1CCCCSc1ccncc1 [Example 149, 3-[4-(4-pyridylthio)butyl]-1-benzylquinazolin-2,4-(1H,3H)-dione]
IC50 [3, 8]: 2.3 µM
IC50 [3, 9]: 2.2 µM
inhibition at 1 µM [4]: -10%
inhibition at 10 µM [4]: 19%

O=C1SC(=Cc2ccc(Cl)cc2)C(=O)N1CCCCSc1ccncc1 [Example 151, 4-[4-[5-(4-chlorobenzylidene)-2,4-thiazolidinedione]butylthio]pyridine]
IC50 [3, 8]: 1.8 µM
IC50 [3, 9]: 1.1 µM
Expression Inhibitory Potency, ICAM-1 ([6]; 30 μM): 60%
inhibition at 1 µM [4]: -1%
inhibition at 10 µM [4]: 74%

O=C1SC(=Cc2ccccc2)C(=O)N1CCSc1ccncc1 [Example 155, 4-[2-(5-benzylidene-2,4-thiazolidinedione)ethylthio]pyridine]
IC50 [3, 8]: 3.8 µM
IC50 [3, 9]: 3.7 µM
inhibition at 1 µM [4]: 4%
inhibition at 10 µM [4]: 78%

CC1(C)OC(=O)N(CCCCSc2ccncc2)C1=O [Example 167, 4-(4-(5,5-dimethyloxazolidine-2,4-dione)butylthio]pyridine]
inhibition in vivo at 50 mg/kg [7]: 62%

O=c1c2ccccc2oc(=S)n1CCSc1ccncc1 [Example 170, 4-[2-[2H-1,3-benzoxadine-2-thion-4(3H)-on]ethylthio]pyridine]
inhibition in vivo at 50 mg/kg [7]: 91%

O=C1CSC(=O)N1CSc1ccncc1 [Example 176, 4-(2,4-thiazolidinedionemethylthio)pyridine hydrochloride]
Inhibitory percentage (acetic acid writhing) [7]: 87%

CC1(C)OC(=O)N(CSc2ccncc2)C1=O [Example 179, 4-(5,5-dimethyloxazolidine-2,4-dionemethylthio)pyridine hydrochloride]
Inhibitory percentage (acetic acid writhing) [7]: 66%

O=c1c2ccccc2n(CCCCSc2ccccn2)c(=O)n1CCCCSc1ccccn1 [Example 198, 1,3-bis[4-(2-pyridylthio)butyl]quinazoline-2,4(1H,3H)-dione]
Expression Inhibitory Potency, ICAM-1 ([6]; 13 μM): 25%
